Data reported in patent publication US20230405028A1 (priority 2020, published 2023).

How the values were obtained:
COX-2 = COX-2 in HSIEC cells treated with TNF-α/IFN-γ (western blot, densitometry); assay type: cell-based, human; details: single agent, escalating doses
Protocol: Cell Culture: Human primary small intestinal epithelial cells (HSIEC), purchased from Cell Biologics were cultured in Epithelial Cell Medium/w Kit. HSIEC cells were incubated at 37° C. in a humidified atmosphere of 5% CO2. HSIEC cells were treated with mycoplasma removal reagent BM-Cyclin (Roche) to ensure mycoplasma negative before treatment.
To do so, COX-2, an enzyme which mediates the bioconversion of arachidonic acid to inflammatory prostaglandins (PGs), was measured via densitometry. GAPDH was used as a reference housekeeping marker for relative densitometry measures. […] Ethanol or DMSO was used, as indicated in the figures, as a vehicle for dilution and as a negative control showing the amount of the inflammatory marker present when inflammation was not induced.
Increasing doses of each molecule of interest, or each combination of molecules of interest, were then distributed to the HSIEC cells treated to induce inflammatory response. Inflammatory markers COX-2 and/or IL-6 were assessed at specific timepoints after induction of inflammation for protein content marker measured via western blot. GAPDH was used as a reference housekeeping marker for relative densitometry measures of protein content.

iNOS = iNOS in HSIEC cells treated with TNF-α/IFN-γ; assay type: cell-based, human; details: 5, 10, 20, 40 μM
[1] = test system: Human primary small intestinal epithelial cells (HSIEC)
5HT2A = 5HT2A (Homo sapiens, UniProt P28223); details: printed with a question mark in the Average Dose column; cited from earlier work
Sequence of 5HT2A (P28223 whole entry): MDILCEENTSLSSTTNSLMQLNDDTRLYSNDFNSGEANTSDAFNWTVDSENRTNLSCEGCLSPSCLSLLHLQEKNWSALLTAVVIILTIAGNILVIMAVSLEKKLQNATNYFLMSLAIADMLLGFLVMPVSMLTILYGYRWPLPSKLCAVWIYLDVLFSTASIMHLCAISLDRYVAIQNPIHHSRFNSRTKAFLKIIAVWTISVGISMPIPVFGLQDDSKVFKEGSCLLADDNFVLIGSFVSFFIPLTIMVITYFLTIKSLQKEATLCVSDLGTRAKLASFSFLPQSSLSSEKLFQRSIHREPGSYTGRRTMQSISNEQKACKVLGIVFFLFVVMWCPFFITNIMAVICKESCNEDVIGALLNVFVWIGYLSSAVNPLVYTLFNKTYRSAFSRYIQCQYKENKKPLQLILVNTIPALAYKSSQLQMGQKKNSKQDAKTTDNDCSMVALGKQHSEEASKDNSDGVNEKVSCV

TRPA1 = TRPA1 overexpressing CHO cells and trigeminal neurons; cited from earlier work

CC(=O)Oc1cccc2[nH]cc(CCN(C)C)c12 [4-ACO-DMT, 3-[2-(dimethylamino)ethyl]-4-acetoxyindole]
doses reducing COX-2 to the greatest extent (COX-2): 40 µM
dose reducing iNOS to the greatest extent (iNOS): 10 µM
doses resulting in reduction of iNOS (iNOS): all doses
effect on cell growth / cellular metabolic activity (MTT, words) [1]: increase growth of cells

CCN(C(=O)[C@@H]1C=C2c3cccc4[nH]cc(c34)C[C@H]2N(C)C1)C1CC1 [ECPLA, D-N-ethyl-N-cyclopropyllysergamide]
potency of LSD (5HT2A): 40% potency % potency of LSD

CCC(CC)NC(=O)[C@@H]1C=C2c3cccc4[nH]cc(c34)C[C@H]2N(C)C1 [LSP, D-lysergic acid 3-pentyl amide]
potency of LSD (5HT2A): 75% potency % potency of LSD

CCCCCc1cc(O)c2c(c1)OC(C)(C)[C@@H]1CCC(C)=C[C@@H]21 [THC, delta-9-tetrahydrocannabinol]
TRPA1 activation (TRPA1): activate TRPA1
